{
  "source": "patent US20250255867A1",
  "about": "(Kadmon Corporation, LLC, priority 2022, published 2025)",
  "key": {"[1]": {"test": "Example 3: respiratory infections and overall survival", "type": "in vivo", "from_the_text": "The median age at enrollment was 42.5 years (range, 26-77). Allogeneic HCT was predominantly performed with myeloablative conditioning (n=44, 75%) and peripheral blood stem cells (n=54, 92%) from an HLA-matched donor (n=53, 90%). The median time from cGVHD diagnosis to enrollment was 22 months (range, 1-161). […] Most subjects (n=39, 66%) had at least 4 organs involved at enrollment. The median number of prior lines of systemic therapy was 3 (range, 1-6). Overall cGVHD response to the line of systemic therapy prior to enrollment was partial response (n=12, 20%), stable disease (n=25, 42%), progressive disease (n=12, 20%) or unknown (n=10, 17%). […] At the time of analysis, 16 subjects remained on therapy. […] Thirty-one subjects (53%) experienced at least 1 respiratory infection (any grade) while on treatment, with 11 subjects experiencing 32 episodes. These infections were categorized as upper respiratory infections (n=33) or pneumonia (n=13). […] With a median follow-up among survivors of 27 months (range, 1.8-55), the 2-year overall survival is 82% (95% CI: 70, 90)."}, "patients with cGVHD": {"system": "patients with cGVHD", "test": "Example 1 phase IIa dose-finding study: cGVHD response per 2014 NIH Consensus Criteria (ORR, BOR, DOR, TTR, organ response)", "type": "in vivo, human", "settings": "for DOR Median (95% CI): responder population", "experimental": "Eligible patients were allogeneic bone marrow transplant or allogeneic hematopoietic cell transplant (alloHCT) recipients of age ≥18 years with persistent cGVHD manifestations after having received one to three prior systemic lines of therapy and who were receiving corticosteroid treatment with or without a calcineurin inhibitor and/or concurrent extracorporeal photopheresis.\n(FIG. 1) Before enrollment of the subsequent cohort, safety data in each previous cohort were analyzed after eight patients reached two months of treatment to assure that there was no safety signal. […] No safety concerns were identified, allowing for planned dose escalation.\nProgression was defined per the 2014 NIH cGVHD Consensus Criteria. Long-term follow-up was conducted every 8 weeks until study closeout. […] Screening was conducted within 28 days of the first study dose. Response was initially assessed after two cycles; however, this was amended to evaluate response on day 1 of each cycle, starting at cycle 2 day 1.\nAll responses were assessed by the investigators.\nPercentage of Participants With Overall Response (OR): OR was defined as the percentage of participants with complete response (CR) or partial response (PR). The OR determination of chronic graft versus host disease (cGVHD) was based on cGVHD response assessment performed by clinicians as per the 2014 National Institutes of Health (NIH) Consensus Development Project for Clinical Trials in cGVHD criteria. CR was defined as the resolution of all manifestations in each organ or site. PR was defined as the improvement in at least 1 organ or site without progression in any other organ or site; and cGVHD progression was defined as the clinically meaningful worsening in 1 or more organs regardless of improvement in other organs.\nDuration of Response (DOR). The DOR was defined as the time (in weeks) from first documentation of response to the time of first documentation of deterioration from best response (e.g., CR to PR, or PR to […]). LOR included the response status of unchanged (LOR-U), mixed (LOR-M), or progression (LOR-P). […] Kaplan-Meier was used for the analysis.\nBest Overall Response (BOR). BOR was defined as the participants with either a CR or PR or lack of response (LOR), where LOR included the response status of unchanged (LOR-U), mixed (LOR-M), or progression (LOR-P). BOR was assessed per the 2014 NIH Consensus Development Project for Clinical Trials in cGVHD criteria. […] Analysis was performed on mITT population.\nBest Response in Each Individual Organ. Best response was defined as the percentage of participants with CR or PR. Response was assessed per the 2014 NIH Consensus Development Project for Clinical Trials in cGVHD criteria; CR was defined as the resolution of all manifestations in each organ or site; PR was defined as the improvement in at least 1 organ or site without progression in any other organ or site. Organ response assessment was performed on 9 individual organs: skin, eyes, mouth, esophagus, upper GI, lower GI, liver, lungs, and joints and fascia. […] Analysis was performed on mITT population. Here, ‘number analyzed’=participants with available data for each specified category."}, "subjects with cGVHD": {"system": "subjects with cGVHD", "test": "Example 2: failure-free survival, overall survival, NRM, relapse", "type": "in vivo, human", "settings": "for FFS at 6 mo (95% CI) / FFS at 12 mo (95% CI): mITT population", "experimental": "All responses were assessed by the study site investigators."}, "[2]": {"settings": "Cohort 1 200 mg QD, 17 analyzed"}, "[3]": {"settings": "Cohort 2 200 mg BID, 16 analyzed"}, "[4]": {"settings": "Cohort 3 400 mg QD, 21 analyzed"}},
  "data": [
    {"smiles": "CC(C)NC(=O)COc1cccc(-c2nc(Nc3ccc4[nH]ncc4c3)c3ccccc3n2)c1", "note": "[Belumosudil, 2-{3-[4-(1H-indazol-5-ylamino)-2-quinazolinyl]phenoxy}-N-(propan-2-yl) acetamide]", "values": [
      {"measurement": "Subjects with at least 1 respiratory infection (any grade) on treatment", "setting": "[1]; 59 BOS subjects", "value": 53, "unit": "%"},
      {"measurement": "2-year overall survival", "setting": "[1]; 95% CI: 70, 90", "value": 82, "unit": "%"},
      {"measurement": "Best response (CR or PR) in skin, percentage of participants", "setting": "patients with cGVHD; Cohort 1 200 mg QD", "value": "(23%)"},
      {"measurement": "Best response in esophagus, percentage of participants", "setting": "patients with cGVHD; Cohort 1 200 mg QD", "value": "(50%)"},
      {"measurement": "Best response in joints and fascia, percentage of participants", "setting": "patients with cGVHD; Cohort 1 200 mg QD", "value": "(55%)"},
      {"measurement": "ORR, % (95% CI)", "setting": "patients with cGVHD; Cohort 1 200 mg QD", "value": 65, "unit": "%"},
      {"measurement": "ORR, refractory to previous LOT", "setting": "patients with cGVHD; Cohort 1 200 mg QD", "value": "7/11 (64, 31 to %"},
      {"measurement": "ORR, severe cGVHD", "setting": "patients with cGVHD; Cohort 1 200 mg QD", "value": "8/12 (67, 35 to %"},
      {"measurement": "ORR, ≤2 prior LOTs subgroup", "setting": "patients with cGVHD; Cohort 1 200 mg QD", "value": "10/15 (67, 38 to %"},
      {"measurement": "ORR, ≤4 organs involved", "setting": "patients with cGVHD; Cohort 1 200 mg QD", "value": "4/8 (50, 16 to %"},
      {"measurement": "BOR: CR", "setting": "patients with cGVHD; [2]", "value": 0, "unit": "participants"},
      {"measurement": "BOR: LOR-P", "setting": "patients with cGVHD; [2]", "value": 2, "unit": "participants"},
      {"measurement": "BOR: LOR-U", "setting": "patients with cGVHD; [2]", "value": 2, "unit": "participants"},
      {"measurement": "BOR: PR", "setting": "patients with cGVHD; [2]", "value": 11, "unit": "participants"},
      {"measurement": "ORR, % (95% CI)", "setting": "patients with cGVHD; Cohort 1 200 mg QD, listed as KD025", "value": "65 (38 to 86) %"},
      {"measurement": "DOR Median (95% CI)", "setting": "patients with cGVHD; Cohort 1 200 mg QD", "value": "40 (8-na* %) weeks"},
      {"measurement": "Best response (CR or PR) in skin, percentage of participants", "setting": "patients with cGVHD; Cohort 2 200 mg BID", "value": "(17%)"},
      {"measurement": "Best response in liver, percentage of participants", "setting": "patients with cGVHD; Cohort 2 200 mg BID", "value": "(50%)"},
      {"measurement": "ORR, % (95% CI)", "setting": "patients with cGVHD; Cohort 2 200 mg BID", "value": 69, "unit": "%"},
      {"measurement": "ORR, refractory to previous LOT", "setting": "patients with cGVHD; Cohort 2 200 mg BID", "value": "6/9 (67, 30 to %"},
      {"measurement": "ORR, severe cGVHD", "setting": "patients with cGVHD; Cohort 2 200 mg BID", "value": "9/14 (64, 35 to %"},
      {"measurement": "ORR, ≤2 prior LOTs subgroup", "setting": "patients with cGVHD; Cohort 2 200 mg BID", "value": "5/8 (63, 25 to %"},
      {"measurement": "ORR, ≤4 organs involved", "setting": "patients with cGVHD; Cohort 2 200 mg BID", "value": "8/10 (80, 44 to %"},
      {"measurement": "BOR: CR", "setting": "patients with cGVHD; [3]", "value": 0, "unit": "participants"},
      {"measurement": "BOR: LOR-P", "setting": "patients with cGVHD; [3]", "value": 1, "unit": "participants"},
      {"measurement": "BOR: LOR-U", "setting": "patients with cGVHD; [3]", "value": 3, "unit": "participants"},
      {"measurement": "BOR: PR", "setting": "patients with cGVHD; [3]", "value": 11, "unit": "participants"},
      {"measurement": "ORR, % (95% CI)", "setting": "patients with cGVHD; Cohort 2 200 mg BID, listed as KD025", "value": "69 (41 to 89) %"},
      {"measurement": "DOR Median (95% CI)", "setting": "patients with cGVHD; Cohort 2 200 mg BID", "value": "11 (2-35%) weeks"},
      {"measurement": "ORR, % (95% CI)", "setting": "patients with cGVHD; Cohort 3 400 mg QD", "value": 57, "unit": "%"},
      {"measurement": "ORR, refractory to previous LOT", "setting": "patients with cGVHD; Cohort 3 400 mg QD", "value": "9/15 (60, 32 to %"},
      {"measurement": "ORR, severe cGVHD", "setting": "patients with cGVHD; Cohort 3 400 mg QD", "value": "8/16 (50, 25 to %"},
      {"measurement": "ORR, ≤2 prior LOTs subgroup", "setting": "patients with cGVHD; Cohort 3 400 mg QD", "value": "8/12 (67, 35 to %"},
      {"measurement": "ORR, ≤4 organs involved", "setting": "patients with cGVHD; Cohort 3 400 mg QD", "value": "7/9 (78, 40 to %"},
      {"measurement": "BOR: CR", "setting": "patients with cGVHD; [4]", "value": 0, "unit": "participants"},
      {"measurement": "BOR: LOR-M", "setting": "patients with cGVHD; [4]", "value": 0, "unit": "participants"},
      {"measurement": "BOR: LOR-P", "setting": "patients with cGVHD; [4]", "value": 1, "unit": "participants"},
      {"measurement": "BOR: LOR-U", "setting": "patients with cGVHD; [4]", "value": 4, "unit": "participants"},
      {"measurement": "BOR: PR", "setting": "patients with cGVHD; [4]", "value": 12, "unit": "participants"},
      {"measurement": "ORR, refractory to previous LOT", "setting": "patients with cGVHD; Total", "value": 63, "unit": "%"},
      {"measurement": "ORR, severe cGVHD", "setting": "patients with cGVHD; Total", "value": 60, "unit": "%"},
      {"measurement": "ORR, ≤2 prior LOTs subgroup", "setting": "patients with cGVHD; Total", "value": 66, "unit": "%"},
      {"measurement": "ORR, ≤4 organs involved", "setting": "patients with cGVHD; Total", "value": 70, "unit": "%"},
      {"measurement": "ORR, % (95% CI)", "setting": "patients with cGVHD; Total N=54, listed as KD025", "value": "65 (51 to 77) %"},
      {"measurement": "ORR, refractory to previous LOT", "setting": "patients with cGVHD; Total, listed as KD025", "value": "22/35 (63, 45 to %"},
      {"measurement": "ORR, severe cGVHD", "setting": "patients with cGVHD; Total, listed as KD025", "value": "25/42 (60, 43 to %"},
      {"measurement": "ORR, ≤2 prior LOTs subgroup", "setting": "patients with cGVHD; Total, listed as KD025", "value": "23/35 (66, 48 to %"},
      {"measurement": "ORR, ≤4 organs involved", "setting": "patients with cGVHD; Total, listed as KD025", "value": "19/27 (70, 50 to %"},
      {"measurement": "ORR among patients with nonsevere cGVHD", "setting": "patients with cGVHD; pooled cohorts", "value": 83, "unit": "%"},
      {"measurement": "FFS at 6 mo (95% CI)", "setting": "subjects with cGVHD; 200 mg daily (n = 66)", "value": "73 (61-83) %"},
      {"measurement": "FFS at 12 mo (95% CI)", "setting": "subjects with cGVHD; 200 mg daily (n = 66)", "value": "57 (44-68) %"},
      {"measurement": "FFS at 6 mo (95% CI)", "setting": "subjects with cGVHD; 200 mg twice daily (n = 66)", "value": "76 (63-84) %"},
      {"measurement": "FFS at 12 mo (95% CI)", "setting": "subjects with cGVHD; 200 mg twice daily (n = 66)", "value": "56 (43-67) %"},
      {"measurement": "Overall FFS rate at 12 months", "setting": "subjects with cGVHD; 95% CI, 47-64", "value": 56, "unit": "%"},
      {"measurement": "Overall FFS rate at 6 months", "setting": "subjects with cGVHD; 95% CI, 66-81", "value": 75, "unit": "%"},
      {"measurement": "2-year OS rate", "setting": "subjects with cGVHD; 95% CI, 82-93", "value": 89, "unit": "%"},
      {"measurement": "Failure event: initiation of a new systemic cGVHD therapy", "setting": "subjects with cGVHD; in vivo", "value": 38, "unit": "%"},
      {"measurement": "Relapse rate", "setting": "subjects with cGVHD; in vivo", "value": 3, "unit": "%"}
    ]}
  ]
}
